Values quoted from earlier work, collected in patent publication US12458645B2, “Pediatric powder for oral suspension containing antiviral agent and method for the preparation thereof” (PHARMATHEN S.A., priority 2014, dated 2025).
Counter-ions that a name gives are not always drawn.

What was measured:
[1] = in words
[2] = in words; remark: listed apart in the source

Nc1nc2c(ncn2COCCO)c(=O)[nH]1 [acyclovir, Acyclovir]
oral bioavailability [1]: poor oral bioavailability

CC(C)[C@H](N)C(=O)OCCOCn1cnc2c(=O)[nH]c(N)nc21 [Valaciclovir hydrochloride, L-valine, 2-[(2-amino-1,6-dihydro-6-oxo-9H-purin-9-yl)methoxy] ethyl ester, mono hydrochloride]
solubility in dichloromethane [2]: insoluble in dichloromethane
solubility in water [2]: soluble in water
